# Assay results: patent US20180251431A1 (VERTEX PHARMACEUTICALS INCORPORATED, priority 2016, published 2018)
# System: HEK293 cells
# Test: HEK293 VLCFA-LPC IC50 determination (13C-labeled C26:0 LPC by UHPLC/MS)
# Type: cell-based, human
# Conditions: Homo sapiens, HEK293, HEK293 cells; average of one or more replicates; read-out: Average HEK293 IC50
# Experimental: HEK293 cells were treated with compounds, such as those listed in Tables A-E of Example 1, using the representative manual protocols described below. The protocols below were also adapted to a semi-automated protocol using standard methods in the art.
# Cell Culture Growth Conditions:
# HEK293 cells were maintained in FreeStyle F17 media (Gibco # A13835) supplemented with PenStrep (1%, Gibco #15070-063), Glutamax (2%, Gibco #35050-061), and Pluronic (0.1%, Gibco #24040-032) (“supplemented media”). Suspension cultures were grown in disposable Erlenmeyer flasks at about 120 rpm, 37° C., 5% CO2, and 80% humidity. Cell densities were kept between about 0.5 and 3 million cells per mL, in about 50-200 mL per flask.
# Treatment of Cells with Compounds Provided Herein:
# The cells were treated with compounds using either a total of 900 uL cell media volume (high-volume assay) or a total of 200 uL cell media volume (low-volume assay). In the high volume assay, 450 μL of supplemented media plus 13C-acetate (1.0 mg/mL, Sigma Aldrich #282014) were added to 0.5 μL of a compound (such as those in Tables A-E) in DMSO in a polypropylene v-bottom plate (Costar #3363) in 1 of 3 dilution schemes. The contents of each well were mixed and transferred to a sterile polypropylene deep-well v-bottom plate (Costar #3960). 450 μL of cultured HEK293 cells in supplemented media at a density of 1.0 million cells/mL was added to each well. In the low volume assay, 100 μL of supplemented media plus 13C-acetate (1.0 mg/mL, Sigma Aldrich #282014) were added to either 0.1 μL or 1.0 uL of a compound (such as those in Tables A-E) in DMSO in a polypropylene v-bottom plate (Costar #3363) in 1 of 3 dilution schemes. 100 μL of cultured HEK293 cells in supplemented media at a density of 1.0 million cells/mL was added to each well. The high volume and low volume plates were sealed with either AirPore Tape Sheets (Qiagen #19571) or Duetz plate covers to control evaporation and placed into a shaking incubator at 225 rpm, 37° C., 5% CO2, and 80% humidity for 48 hours. For both the high and low volume assays the 3 dilution schemes used were as follows:
# Following incubation, treated cells were harvested by centrifugation at 1690×g for 10 minutes. In the high volume assay 200 uL treated cells were transferred to a polypropylene v-bottom plate (Costar #3363) prior to centrifugation. In the low volume assay the incubation plate was centrifuged directly, without a transfer step. The supernatant was then discarded and the analytes were extracted using 1 of 2 different extraction schemes. In the first scheme, the cell pellet was visibly broken up by mixing the cell pellet up and down in 100 μL of hexane/isopropanol (60:40) 20 times. The resulting mixture was transferred to a 0.45 μm Durapore membrane (Millipore #MSH VN4510) atop a polypropylene v-bottom plate (Costar #3363) and filtered by centrifugation at 1690×g for 5 minutes. 120 μL of n-butanol containing 10 nM C13:0 lysophosphatidylcholine was added to the filtrate as an injection control standard, then the entire volume was transferred to a new Durapore membrane/v-bottom plate. In the second scheme, the cell pellet was visibly broken up by mixing the cell pellet up and down in 180 μL of methanol containing 10 nM C13:0 lysophosphatidylcholine 20 times. The resulting mixture was transferred to a 0.45 μm Durapore membrane (Millipore #MSH VN4510) atop a polypropylene v-bottom plate and filtered by centrifugation at 1690×g for 5 minutes. In both schemes, the plates were then sealed with pierceable capmats (Micronic MP53017) and stored at −20 OC until analyzed.
# UHPLC/Mass Spectrometry Readout:
# The filtered organic extraction was analyzed with a 1290 Agilent Infinity Series UHPLC coupled to an ABI Sciex QTrap 6500 mass spectrometer. […]
row,SMILES,IC50 [µM]
1,"O=C(Nc1ccn(-c2ccccc2)n1)C1(c2ccccc2F)CC1 [Compound 22, 1-(2-fluorophenyl)-N-(1-phenylpyrazol-3-yl)cyclopropanecarboxamide]",0.012
2,"O=C(Nc1ccn(-c2ccccc2)n1)C1(c2ccc(Cl)cc2)CC1 [Compound 23, 1-(4-chlorophenyl)-N-(1-phenylpyrazol-3-yl)cyclopropanecarboxamide]",0.83
3,"O=C(Nc1ccn(-c2ccccc2)n1)C1(c2ccccc2Cl)CC1 [Compound 24, 1-(2-chlorophenyl)-N-(1-phenylpyrazol-3-yl)cyclopropanecarboxamide]",0.041
4,"COc1ccc(C2(C(=O)Nc3ccn(-c4ccccc4)n3)CC2)cc1 [Compound 25, 1-(4-methoxyphenyl)-N-(1-phenylpyrazol-3-yl)cyclopropanecarboxamide]",3.6
5,"COc1cccc(C2(C(=O)Nc3ccn(-c4ccccc4)n3)CC2)c1 [Compound 26, 1-(3-methoxyphenyl)-N-(1-phenylpyrazol-3-yl)cyclopropanecarboxamide]",0.27
6,"C[C@@H](C(=O)Nc1ccn(-c2ccccc2)n1)c1ccccc1 [Compound 27, (2R)-2-phenyl-N-(1-phenylpyrazol-3-yl)propanamide]",0.21
7,"CC[C@@H](C(=O)Nc1ccn(-c2ccccc2)n1)c1ccccc1 [Compound 28, (2R)-2-phenyl-N-(1-phenylpyrazol-3-yl)butanamide]",0.58
8,"O=C(Nc1ccn(-c2ccccc2)n1)C1(c2cc(F)cc(C(F)(F)F)c2)CC1 [Compound 29, 1-[3-fluoro-5-(trifluoromethyl)phenyl]-N-(1-phenylpyrazol-3-yl)cyclopropanecarboxamide]",1.9
9,"CC(C)(C(=O)Nc1ccn(-c2ccccc2)n1)c1ccccc1 [Compound 30, 2-methyl-2-phenyl-N-(1-phenyl-1H-pyrazol-3-yl)propanamide]",0.32
10,"CC(C)C(C(=O)Nc1ccn(-c2ccccc2)n1)c1ccccc1 (stereo not drawn) [Compound 31, 3-methyl-2-phenyl-N-(1-phenylpyrazol-3-yl)butanamide]",> 2
11,"Cc1cccc(C2(C(=O)Nc3ccn(-c4ccccc4)n3)CC2)c1 [Compound 32, 1-(m-tolyl)-N-(1-phenylpyrazol-3-yl)cyclopropanecarboxamide]",0.65
12,"CCOc1ccc(C2(C(=O)Nc3ccn(-c4ccccc4)n3)CC2)cc1 [Compound 33, 1-(4-ethoxyphenyl)-N-(1-phenylpyrazol-3-yl)cyclopropanecarboxamide]",0.99
13,"O=C(Nc1ccn(-c2ccccc2)n1)C1(c2ccccc2)CCCC1 [Compound 34, 1-phenyl-N-(1-phenylpyrazol-3-yl)cyclopentanecarboxamide]",2.1
14,"O=C(Nc1ccn(-c2ccccc2)n1)C1(c2ccccc2)CCC1 [Compound 35, 1-phenyl-N-(1-phenylpyrazol-3-yl)cyclobutanecarboxamide]",0.33
15,"Cc1cc(C)cc(C2(C(=O)Nc3ccn(-c4ccccc4)n3)CC2)c1 [Compound 36, 1-(3,5-dimethylphenyl)-N-(1-phenylpyrazol-3-yl)cyclopropanecarboxamide]",> 5
16,"O=C(Cc1cccs1)Nc1ccn(-c2ccccc2)n1 [Compound 37, N-(1-phenylpyrazol-3-yl)-2-(2-thienyl)acetamide]",0.064
17,"O=C(Cc1ccncc1)Nc1ccn(-c2ccccc2)n1 [Compound 38, N-(1-phenylpyrazol-3-yl)-2-(4-pyridyl)acetamide]",> 5
18,"O=C(Cc1cccnc1)Nc1ccn(-c2ccccc2)n1 [Compound 39, N-(1-phenylpyrazol-3-yl)-2-(3-pyridyl)acetamide]",> 5
19,"O=C(Cc1ccccn1)Nc1ccn(-c2ccccc2)n1 [Compound 40, N-(1-phenylpyrazol-3-yl)-2-(2-pyridyl)acetamide]",1.5
20,"O=C(Cc1ccccc1)Nc1ccn(-c2ccccc2)n1 [Compound 41, 2-phenyl-N-(1-phenylpyrazol-3-yl)acetamide]",0.073

row,SMILES,IC50 [µM]
1,"Cc1ccc(CC(=O)Nc2ccn(-c3ccccc3)n2)cc1 [Compound 42, N-(1-phenylpyrazol-3-yl)-2-(p-tolyl)acetamide]",0.71
2,"Cc1cccc(CC(=O)Nc2ccn(-c3ccccc3)n2)c1 [Compound 43, 2-(m-tolyl)-N-(1-phenylpyrazol-3-yl)acetamide]",1.9
3,"Cc1ccccc1CC(=O)Nc1ccn(-c2ccccc2)n1 [Compound 44, 2-(o-tolyl)-N-(1-phenylpyrazol-3-yl)acetamide]",0.24
4,"COc1ccc(CC(=O)Nc2ccn(-c3ccccc3)n2)cc1 [Compound 45, 2-(4-methoxyphenyl)-N-(1-phenylpyrazol-3-yl)acetamide]",> 5
5,"COc1cccc(CC(=O)Nc2ccn(-c3ccccc3)n2)c1 [Compound 46, 2-(3-methoxyphenyl)-N-(1-phenylpyrazol-3-yl)acetamide]",> 5
6,"CCOc1ccc(CC(=O)Nc2ccn(-c3ccccc3)n2)cc1 [Compound 47, 2-(4-ethoxyphenyl)-N-(1-phenylpyrazol-3-yl)acetamide]",> 5
7,"O=C(Cc1cccc(F)c1)Nc1ccn(-c2ccccc2)n1 [Compound 49, 2-(3-fluorophenyl)-N-(1-phenylpyrazol-3-yl)acetamide]",1.9
8,"O=C(Cc1cccc(Cl)c1)Nc1ccn(-c2ccccc2)n1 [Compound 50, 2-(3-chlorophenyl)-N-(1-phenylpyrazol-3-yl)acetamide]",> 5
9,"O=C(Cc1cccc(C(F)(F)F)c1)Nc1ccn(-c2ccccc2)n1 [Compound 51, N-(1-phenylpyrazol-3-yl)-2-[3-(trifluoromethyl)phenyl]acetamide]",> 2
10,"O=C(Cc1ccccc1C(F)(F)F)Nc1ccn(-c2ccccc2)n1 [Compound 52, N-(1-phenylpyrazol-3-yl)-2-[2-(trifluoromethyl)phenyl]acetamide]",1.1
11,"O=C(Cc1ccc(OC(F)(F)F)cc1)Nc1ccn(-c2ccccc2)n1 [Compound 53, N-(1-phenylpyrazol-3-yl)-2-[4-(trifluoromethoxy)phenyl]acetamide]",> 5
12,"O=C(Cc1ccccc1OC(F)(F)F)Nc1ccn(-c2ccccc2)n1 [Compound 54, N-(1-phenylpyrazol-3-yl)-2-[2-(trifluoromethoxy)phenyl]acetamide]",> 5
13,"Cc1ccc(C)c(CC(=O)Nc2ccn(-c3ccccc3)n2)c1 [Compound 55, 2-(2,5-dimethylphenyl)-N-(1-phenylpyrazol-3-yl)acetamide]",> 5
14,"O=C(Cc1ccc(O)c(F)c1)Nc1ccn(-c2ccccc2)n1 [Compound 56, 2-(3-fluoro-4-hydroxy-phenyl)-N-(1-phenylpyrazol-3-yl)acetamide]",> 5
15,"O=C(Cc1ccc(F)c(F)c1)Nc1ccn(-c2ccccc2)n1 [Compound 57, 2-(3,4-difluorophenyl)-N-(1-phenylpyrazol-3-yl)acetamide]",> 5
16,"O=C(Cc1cc(F)cc(F)c1)Nc1ccn(-c2ccccc2)n1 [Compound 58, 2-(3,5-difluorophenyl)-N-(1-phenylpyrazol-3-yl)acetamide]",> 5
17,"O=C(Cc1cc(F)ccc1F)Nc1ccn(-c2ccccc2)n1 [Compound 59, 2-(2,5-difluorophenyl)-N-(1-phenylpyrazol-3-yl)acetamide]",0.25
18,"O=C(Cc1cccc(F)c1F)Nc1ccn(-c2ccccc2)n1 [Compound 60, 2-(2,3-difluorophenyl)-N-(1-phenylpyrazol-3-yl)acetamide]",> 2
19,"O=C(Cc1c(F)cccc1F)Nc1ccn(-c2ccccc2)n1 [Compound 61, 2-(2,6-difluorophenyl)-N-(1-phenylpyrazol-3-yl)acetamide]",0.065
